From patent publication US8628792B2, “Drug cores for sustained release of therapeutic agents” (Mati Therapeutics, Inc., priority 2007, dated 2014)

Assays:
[1] = Latanoprost content per 1 mm section divided from a filled precursor tube; type: physicochemical
Protocol: (squares) unexpectedly produced a more uniform distribution of therapeutic agent latanoprost in the silicone matrix, after curing, along the entire length of the 10 cm precursor sheath, which was subsequently divided into 1 mm sections, and the latanoprost content of each sections (drug insert) determined. Extrusions carried out at room temperature (circles) and at 40° C. […] The results are significant in terms of manufacturing medically useful devices, as it is desirable to maintain a uniform content of the therapeutic agent among a plurality of drug inserts manufactured by this method.
Measurements of average latanoprost content (μg) per 1 mm section (core) divided (razor blade) from a filled precursor tube are as shown: […]

[2] = In vitro elution study of drug cores (drug in silicone matrix in polyimide tube) in 7.4 pH buffer, HPLC; type: physicochemical; settings: for Duration: calculated time when ~10% of drug remains
Source text: Drug cores as described above have been fabricated with different cross sectional sizes of 0.006 inches, 0.012 inches, and 0.025 inches, and drug concentrations of 5%, 10% and 20% in a silicone matrix. Theses drug cores can be made with a Syringe Tube and Cartridge Assembly, Mixing Latanoprost with Silicone, and Injecting the mixture into a polyimide tube which is cut to desired lengths and sealed. The length of the drug cores were approximately 0.80 to 0.95 mm, which for a diameter of 0.012 inches (0.32 mm) corresponds to total Latanoprost content in the drug cores of approximately 3.5 μg, 7 μg and 14 μg for concentrations of 5%, 10% and 20%, respectively.
Mix Latanoprost with Silicone. Prepare Latanoprost. Latanoprost is provided as a 1% solution in methylacetate. Place the appropriate amount of solution into a dish and using a nitrogen stream, evaporate the solution until only the Latanoprost remains. Place the dish with the Latanoprost oil under vacuum for 30 minutes. Combine Latanoprost with silicone. Prepare three different concentrations of Latanoprost (5%, 10% and 20%) in silicone Nusil 6385 and inject it into tubing of different diameters (0.006 in, 0.012 in and 0.025 inches) to generate 3×3 matrixes. The percent of Latanoprost to silicone is determined by the total weight of the drug matrix. Calculation: Weight of Latanoprost/(weight of Latanoprost+weight of silicone)×100=percent drug.
Inject tube. 1. Insert Cartridge and Polyimide tubes assembly into 1 ml syringe. 2. Add one drop of catalyst, (MED-6385 Curing Agent) in the syringe. 3. Force excess catalyst out of the polyimide tube with clean air. 4. Fill syringe with silicone drug matrix. 5, Inject tube with drug matrix until the tube is filled or the syringe plunger becomes too difficult to push. 6. Close off the distal end of the polyimide tube and maintain pressure until the silicone begins to solidify. 7. Allow to cure at room temperature for 12 hours. 8. Place under vacuum for 30 minutes. 9. Place tube in right size trim fixture (prepared in house to hold different size tubing) and cut drug inserts to length (0.80-0.95 mm).
Testing. Elution study (in vitro). 1. Place 10 plugs of same size and same concentration per centrifuge tube and add 1.5 ml of 7.4 pH buffer solution to it. 2. Change the solvent with fresh 7.4 pH buffer after appropriate time. 3. Take HPLC of the elutant at 210 nm with PDA detector 2996 using Sunfire C18, 3 mm×10 mm column (Waters Corporation, Milford, Mass.). Acetonitrile and water mixture is used for gradient elution. Calibration was done in house before and after each analysis, using in-house standards with precisely weighed concentration of Latanoprost. 4. Calculate the amount of drug release per day per device for different size tubings having different concentrations of Latanoprost. 5. Plot elution rate vs area and concentration for day 1 and day 14.

[3] = formulations A-D (silicone 4011 or 6385, 10-20% Latanoprost, 0-20% NaCl), non-sterile cores

## CC(C)OC(=O)CCC/C=C\C[C@@H]1[C@@H](CC[C@@H](O)CCc2ccccc2)[C@H](O)C[C@@H]1O [Latanoprost]
[1]; Cold extrusion (−5° C.)
  average latanoprost content per 1 mm section (Average±SD): 20.9 ± 0.5 µg
[1]; Room temperature (22° C.) extrusion
  average latanoprost content per 1 mm section (Average±SD): 20.2 ± 1.9 µg
[2]; 7 μg core (10%, 0.32 mm diameter, 0.95 mm long), 10 to 20 days, compared with 14 μg core
  elution rate: comparable rates
[2]; 14 μg core (20%, 0.32 mm diameter, 0.95 mm long), from about 10 to 40 days
  elution rate: approximately 100 ng per day
[2]; 20% latanoprost in 6380 material with 2.5% crosslinker, 1, 4, 7 and 14 days, vs 6385 material
  relative elution rate: slightly lower elution rate
[2]; 20% latanoprost in 6380 material with 5% crosslinker, all time points
  relative elution rate: lowest elution rate
[2]; 20% latanoprost in 6385 material with 2.5% crosslinker, 1, 4, 7 and 14 days
  relative elution rate: highest elution rates
[2]; 6385 material with 5% latanoprost, all time periods
  relative elution rate: lowest rate
[2]; 6385 material with 5, 10, 20, 30 and 40% latanoprost, all samples, by 7 days
  elution rate: below 500 ng per day
[2]; 6385 material with 20% latanoprost, all time points
  elution rate, both ends open/2 compared with one end open: very close to the one end open data
[2]; 6385 material with 40% latanoprost, all time periods
  relative elution rate: highest rate
[2]; buffered saline elution system, initial
  initial elution of Latanoprost from plug: approximately 500 ng per day
[2]; buffered saline elution system, within 7-14 days, depending on initial concentration
  elution rate after dropping off: approximately 100 ng/day
[2]; day 1, 0.006 inch diameter core, exposed surface area approx 0.02 mm2
  Latanoprost released (elution rate): about 200 ng
[2]; day 1, 0.012 inch diameter core, exposed surface area approx 0.07 mm2
  Latanoprost released (elution rate): ~400 ng
[2]; day 1, 0.025 inch diameter core, exposed surface area approx 0.32 mm2
  Latanoprost released (elution rate): ~1200 ng
[2]; day 14, 0.006 inch diameter core, approx 0.02 mm2
  Latanoprost released (elution rate): about 25 ng
[2]; day 14, 0.012 inch (0.32 mm) diameter core, approx 0.07 mm2
  Latanoprost released (elution rate): ~100 ng
[2]; day 14, 0.025 inch diameter core, approx 0.32 mm2
  Latanoprost released (elution rate): ~300 ng
[2]; e-beam sterile core, 20% latanoprost in 6385, first day
  elution rate: about 450 ng/day
[2]; [3]
  elution rate by 3 weeks (21 days): about 100 ng per device per day
  initial elution rate: approximately 300 ng per device per day
[2]; non-sterile core, 20% latanoprost in 6385, 14 day
  elution rate: about 150 ng/day
[2]; non-sterile core, 20% latanoprost in 6385, days 4 and 7
  elution rate: about 400 ng/day
[2]; non-sterile core, 20% latanoprost in 6385, first day
  elution rate: ~1400 ng/day
[2]; sterile core, 20% latanoprost in 6385, 14 day
  elution rate: 200 ng/day
[2]; sterile core, 20% latanoprost in 6385, days 4 and 7
  elution rate: about 400 ng/day
[2]; total Latanoprost content 3.5 μg
  Duration: ~25 days
[2]; total Latanoprost content 7 μg
  Duration: ~45 days
[2]; total Latanoprost content 14 μg
  Duration: ~100 days
